The values below come from patent US20240050463A1, “THERAPEUTIC COMPOSITIONS AND METHODS FOR TREATING HEPATITIS B” (ARBUTUS BIOPHARMA CORPORATION, priority 2016, published 2024).

SMILES strings stand for the structures.

Test [1] relates to HBV rcDNA in AML12-HBV10 cells. The experiment in a line: Inhibition of rcDNA in AML12-HBV10 cells (bDNA assay), checkerboard, MacSynergy II. The following applies: Hepatitis B virus, AML12HBV10, in Mus musculus, expected from additive interaction; Compound 3 0.3125 μM; ETV μM in c0 of the row. It counts as cell-based, HBV (mouse hepatocyte cell line). The procedure:
The two inhibitors were tested both singly as well as in combinations in a checkerboard fashion such that each concentration of inhibitor A was combined with each concentration of inhibitor B to determine their combination effects on inhibition of rcDNA production.

Test [2] relates to D type HBV in primary human hepatocytes (PHH). The experiment in a line: HBV DNA in culture supernatants of HBV-infected primary human hepatocytes (qPCR), MacSynergy. It counts as cell-based. As to conditions: COMPOUND 25 0.00 nM. As to the method: The mouse liver perfusion was applied to isolate PHHs. The isolated hepatocytes were further purified by Percoll. The cells were resuspended with culture media and seeded into the 96-well plates (6×10^4 cell/well) or 48-well plates (1.2×10^5 cell/well). The PHHs were infected with a D type HBV one day post seeding (day 1).
On day 2, the test compounds were diluted and added into the cell culture plates. The culture media containing the compounds were refreshed every other day. The cell culture supernatants were collected on day 8 for the HBV DNA and antigen determinations.
The compounds were tested at 7 concentrations, 3-fold dilution, in triplicate.
Two compounds were tested at 5×5 matrix, in triplicate plates.
DNA in the culture supernatants harvested on days 8 were isolated with QIAamp 96 DNA Blood Kit (Qiagen-51161). For each sample, 100 μl of the culture supernatants was used to extract DNA. The DNA was eluted with 100 μl, 150 μl or 180 μl of AE. HBV DNA in the culture supernatants was quantified by qPCR. The combination effect was analyzed by the MacSynergy software. The primers are described below.
In general terms: Real-time PCR tracks product formation cycle by cycle.

The subject of a further test is hepatitis B virus (HBV). The experiment in a line: Serum HBsAg in humanized liver chimeric mouse model of chronic HBV infection (GS HBsAg EIA 3.0). It counts as in vivo. As to conditions: Compound 3 oral 100 mg/kg twice daily, SIRNA-NP intravenous 3 mg/kg every 2 weeks, ETV oral 1.2 μg/kg daily, pegIFN α-2a subcutaneous 30 μg/kg twice a week. As to the method: This work was conducted in a well-established humanized liver chimeric mouse model of chronic hepatitis B virus (HBV) infection (Tsuge et al., Hepatology, 42(5), 1046-54 (2005)). A persistent level of HBV infection was established in the animals prior to the treatment phase which started at Day 0.
The anti-HBV effects were assessed based on serum HBsAg levels using the GS HBsAg EIA 3.0 enzyme linked immunosorbent assay kit from Bio-Rad Laboratories as per manufacturer instructions; and serum HBV DNA levels measured from total extracted DNA using a quantitative PCR assay (primer/probe sequences from Tanaka et al., Journal of Medical Virology, 72, 223-229 (2004)).

A word on the inhibition: it is how much of the control response was suppressed. For the compound `CC[C@@H](C)NS(=O)(=O)c1ccc(F)c(C(=O)Nc2ccc(F)c(F)c2)c1` [Compound 3], the inhibition at 0.3125 µM in test [1] was determined as 71%. In addition, the “AVERAGE % INHIBITION, HBV DNA” value in test [2] (COMPOUND 3 61.73 nM) is −28.13%; in test [2] (COMPOUND 3 185.19 nM) it was −25.93%; in test [2] (COMPOUND 3 555.56 nM), −3.32%; in test [2] (COMPOUND 3 1666.67 nM), 25.94%; in test [2] (COMPOUND 3 5000.00 nM) it was 74.78%.
Regarding `C=C1[C@H](CO)[C@@H](O)C[C@@H]1n1cnc2c(=O)[nH]c(N)nc21` [ETV, Entecavir], the “Serum HBsAg (± SEM)” value in the test with hepatitis B virus (HBV) (Day 0 (start of treatment)) stood at 2649 ± 282 IU/mL; in the test with hepatitis B virus (HBV) (Day 21), 2975 ± 629 IU/mL.
